Assay results reported in US9856273B2, “ETP derivatives” (priority 2012, dated 2018).

What was measured:
[1] = system: Cyclin-dependent kinase inhibitor 1B p27(Kip1); test: Western blot, induction of p27(Kip1); assay type: cell-based, human; settings: A2058, DU145, A549 and SKOV3 cells
Protocol: (§1) Induction of p16, p53, p21waf1 and p27 (FIGS. 8 and 9): Western blot analyses were performed with specific antibodies. Briefly, human A2058 melanoma, DU145 prostate, A549 non-small lung and SKOV3 ovarian cancer cells were treated with ETP69. Whole-cell lysates (40 […]g) were resolved by SDS-PAGE. Primary specific antibodies to p53, p21^WAF1, p27(Kip1), p16 and Actin were diluted in PBS (pH 7.5) with 5% (w/v) nonfat milk and 0.1% (v/v) Tween-20 over night at 4° C. Horseradish peroxidase-conjugated secondary antibodies were incubated in PBS (pH 7.5) with 5% (w/v) nonfat milk and 0.1% (v/v) Tween-20 for 1 h at room temperature. Positive immuno-reactive proteins were detected using the ECL system (Pierce, Rockford, Ill.).

[2] = system: Panc1 pancreatic cancer cells; test: Senescence assay (senescence-associated beta-galactosidase activity); assay type: cell-based; settings: 5 days, compared to DMSO
Protocol: Senescence Assay: Panc1 cells were seeded at a density of 3×10^4 cells per well in a 24-well plate. The cells were then treated with 100 nM ETP69 or 0.3% DMSO (vehicle control). Panc-1 and SU.86.86 cells expressing SUV39H1 shRNA or a non-targeting (NT) control shRNA were also seeded in 24-well plates at a density of 3×10^4 cells/well and 5×10^4 cells/well, respectively. After 5 days, cells were washed with PBS, fixed with 3% formaldehyde/PBS, and stained over night at 37° C. with a freshly prepared staining solution (1 mg/ml 5-bromo-4-chloro-3-indolyl b-D-galactoside in 40 mM citric acid/sodium phosphate, pH 6.0, 5 mM potassium ferrocyanide, 5 mM potassium ferricyanide, 150 mM NaCl, 2 mM MgCl2). The blue stain indicates senescence-associated β-galactosidase activity. Photographs were taken with a 100× or a 20× objective under brightfield illumination using an INFINITY2 digital CCD camera (Lumenera, Canada) mounted on a Nikon Eclipse TS100 inverted microscope.

[3] = system: normal pancreatic epithelial cells; test: Viability of normal pancreatic epithelial cells; settings: 100 nM to 1000 nM
[4] = system: MDA-MB-468 triple negative breast cancer cells; test: Cell viability assay; assay type: cell-based
[5] = system: HepG2 hepatocellular carcinoma cells; test: MTS cell viability assay; assay type: cell-based; settings: Homo sapiens
[6] = system: HCC38 triple negative breast cancer cells; test: Cell viability assay; assay type: cell-based
[7] = system: BxPC3 pancreatic cancer cell line; test: MTS assay; assay type: cell-based
Protocol: (§2) MTS Assay: Panc1, BxPC3, or SU.86.86 cells were seeded in a 96-well plate at a density of 7500 cells/well prior to treatment with increasing amounts of ETP69 or DMSO vehicle control. Forty-eight hours post treatment cells were incubated with the MTS substrate (CellTiter 96 AQueous One Solution Cell Proliferation Assay, Promega, Madison, Wis.) according to the manufacturer's instructions. The absorbance was measured at 490 nm using a 96-well plate reader (Synergy 4, Biotek), and the data were normalized to the absorbance of DMSO-treated cells. IC50 values were determined using GraphPad Prism's non-linear regression function. See FIGS. 11, 21, 22A, 22B, 23, 24A, 24B, 24C, 25A and 25B.

[8] = system: Panc1 pancreatic cancer cell line; test: MTS assay; assay type: cell-based; settings: Homo sapiens, PANC-1; Panc1, 48 h
Protocol: as §2

[9] = system: Su.86.86 pancreatic cancer cell line; test: MTS assay; assay type: cell-based
Protocol: as §2

[10] = system: Huh-7 hepatocellular carcinoma cells; test: MTS cell viability assay; assay type: cell-based; settings: Homo sapiens
Protocol: (§3) IC50 Determinations for Ovarian, Liver, Pancreatic, CML, AML Cancer Cell Lines (See e.g. FIGS. 4, 6A-6C, 21, 22A, 22B, 23, 24A-24C, 25A, 25B and 34): MTS assays were performed for cell viability. SKOV3 ovarian cancer, Huh-7 hepatocellular carcinoma, MIA-PaCa2 pancreatic cancer, KCL-22 CML, T315I mutant KCL-22 CML, MOLM-13 AML and MV4-11 AML cells were seeded in 96-well plates (5000 cells/well for solid tumors, 10000 cells/well for blood tumors), incubated overnight at 37° C. in 5% CO2, and exposed to racemic ETP69 or S enantiomer in a dose-dependent manner for 48 h. Dimethyl sulfoxide (DMSO) was used as the vehicle control. Viable cell numbers were determined by tetrazolium conversion to its formazan dye and absorbance was measured at 490 nm using an automated ELISA plate reader. Each experiment was performed in quadruplicate.

MV4-11 AML cells = test: MTS cell viability assay; assay type: cell-based; settings: Homo sapiens
Protocol: as §3

KCL-22 CML cells = test: MTS cell viability assay; assay type: cell-based; settings: Homo sapiens
Protocol: as §3

[11] = system: T315I mutant KCL-22 CML cells; test: MTS cell viability assay; assay type: cell-based; settings: Homo sapiens
Protocol: as §3

SKOV3 xenografts = assay type: in vivo, mouse; settings: SKOV3 xenograft, 2.5 mg/kg IP once daily for 18 days
Protocol: Human SKOV3 cancer cells (4×10^6) were resuspended in serum-free McCoy's medium and Matrigel (ration of 1:1) and subcutaneously injected into the flank of 5-6 weeks old female NOD/SCID/IL-2rg(ko)(NSG). When palpable tumor sizes reached at approximately 50 mm^3, mice were divided into two groups (vehicle=9, treatment=9). Then, ETP69 was administered with IP injection at 2.5 mg/kg with vehicle (5% DMSO+15% Solutol+80% H2O), once daily for 18 days. Tumor volumes were calculated by the formula 1/2a×b^2, where a is the long diameter, and b is the short diameter. Tumor volumes correlate with tumor weights. The statistical significance of group differences was analyzed using a Student's t-test with the two-tailed distribution. P values less than 0.05 were considered statistically significant.

[12] = system: p21WAF1 cyclin-dependent kinase inhibitor 1; test: Western blot, induction of p21WAF1; assay type: cell-based, human; settings: A2058, DU145, A549 and SKOV3 cells
Protocol: as §1

[13] = system: MDA-MB-231 triple negative breast cancer cells; test: Cell viability assay; assay type: cell-based
[14] = system: HCC1937 triple negative breast cancer cells; test: Cell viability assay; assay type: cell-based

CN1C(=O)[C@@]23C[C@](C)(C#N)[C@H](c4ccc5c(c4)OCO5)N2C(=O)[C@]1(C)SS3 (racemic) [ETP69, Rac-(3S,6S,7S,8aS)-6-(Benzo[d][1,3]dioxol-5-yl)-2,3,7-trimethyl-1,4-dioxohexahydro-6H-3,8a-epidithiopyrrolo[1,2-a]pyrazine-7-carbonitrile]
induction of p27(Kip1) [1]: induces | senescence-associated beta-galactosidase activity [2]: increased senescence-associated beta-galactosidase activity | destruction of normal pancreatic cells [3]: little destruction | viability inhibition [4]: viability inhibition | IC50 [5]: 13.8 nM | viability inhibition [6]: viability inhibition | killing of cells ([7]; BxPC3, 100 nM to 1000 nM): significant killing | IC50 ([7]; Homo sapiens, BXPC-3, BxPC3, 48 h): 210 nM | IC50 [8]: 824 nM | IC50 ([9]; Homo sapiens, SU.86.86, 48 h): 86 nM | killing of cells ([9]; SU86.86, 100 nM to 1000 nM): significant killing | IC50 [10]: 3.3 nM | IC50 (MV4-11 AML cells): 1.8 nM | IC50 (KCL-22 CML cells): 180 nM | IC50 [11]: 170 nM | toxicity symptoms (SKOV3 xenografts): no observable toxicity symptoms | tumor volume (SKOV3 xenografts): decreased | tumor weight (SKOV3 xenografts): decreased | induction of p21WAF1 [12]: induces | viability inhibition [13]: viability inhibition | viability inhibition [14]: viability inhibition
